Data reported in US20110112135A1, “Imidazo [1,2-A] Pyridine Compounds” (priority 2007, published 2011).
Like-named read-outs stand apart in the source and are kept apart here.

Key:
[1] = test system: ABCA1 gene; assay: Quantitative analysis of ABCA1 gene regulation in THP-1 cells (real-time PCR); type: cell-based, human; conditions: for EC50: read-out: EC50 ABCA1; for Emax: LXR agonist reference at 1.0 uM as positive control, read-out: Agonism ABCA1
Protocol: III. Quantitative Analysis of ABCA1 Gene Regulation in THP-1 Cells. The compounds of formula (I) effect on the regulation of the ABCA1 gene was evaluated using the following procedure. Materials and Methods Cell culture: The THP-1 monocytic cell line (ATCC #TIB-202) was obtained from American Type Culture Collection (Manassas, Va.) and cultured in RPMI 1640 medium (Gibco, Carlsbad, Calif.) containing 10% FBS, 2 mM L-glutamine, and 55 uM beta-Mercaptoethanol (BME). […] Louis, Mo.) for three days to induce differentiation into adherent macrophages. Differentiated THP-1 cells were treated with test compounds or ligands dissolved in DMSO (Sigma, D-8779) in culture medium lacking phorbal ester. […] Dose response effects were measured in duplicate, in the range of 0.001 to 30 micromolar concentrations and treated cells were incubated for an additional 18 hrs prior to RNA isolation. Unstimulated cells treated with vehicle were included as negative controls on each plate. […] L., J. Med. Chem. (2000), 45:1963-1966.). Results of antagonist analysis are expressed as % antagonism and IC50 (in μM). RNA isolation and quantitation: Total cellular RNA was isolated from treated cells cultured in 96-well plates using PrepStation 6100 (Applied Biosystems, Foster City, Calif.), according to the manufacturer's recommendations. RNA was resuspended in ribonuclease-free water and stored at -70° C. prior to analysis. RNA concentrations were quantitated with RiboGreen test procedure, #R-11490 (Molecular Probes, Eugene, Oreg.). Gene expression analysis: Gene-specific mRNA quantitation was performed by real-time PCR with the Perkin Elmer Corp. chemistry on an ABI Prism 7700 Sequence detection system (Applied Biosystems, Foster City, Calif.) according to the manufacturer's instructions. Samples (50-100 ng) of total RNA were assayed in duplicate or triplicate in 50 ul reactions using one-step RT-PCR and the standard curve method to estimate specific mRNA concentrations. Sequences of gene-specific primer and probe sets were designed with Primer Express Software (Applied Biosystems, Foster City, Calif.). […] Relative levels of ABCA1 mRNA are normalized using GAPDH mRNA or 18S rRNA probe/primer sets purchased commercially (Applied Biosystems, Foster City, Calif.). Statistics: Mean, standard deviation and statistical significance of duplicate evaluations of RNA samples were assessed using ANOVA, one-way analysis of variance using SAS analysis. Reagents: -GAPDH Probe and Primers-Taqman GAPDH Control Reagents 402869 or 4310884E 18S Ribosomal RNA-Taqman 18S Control Reagents 4308329 […] Qiagen Quantitect probe RT-PCR 204443.

[2] = biological target: T1, human LXRα (Homo sapiens, UniProt Q13133); assay: Ligand-binding test procedure for human LXRα (3H T0901317 tracer, flash plates); conditions: biotinylated hLXRα from E. coli extract; tracer 3H T0901317
T1 construct: biotin (biotinylated); made in house; host or cells: E. coli (crude extract)
T1 sequence (Q13133 1-447): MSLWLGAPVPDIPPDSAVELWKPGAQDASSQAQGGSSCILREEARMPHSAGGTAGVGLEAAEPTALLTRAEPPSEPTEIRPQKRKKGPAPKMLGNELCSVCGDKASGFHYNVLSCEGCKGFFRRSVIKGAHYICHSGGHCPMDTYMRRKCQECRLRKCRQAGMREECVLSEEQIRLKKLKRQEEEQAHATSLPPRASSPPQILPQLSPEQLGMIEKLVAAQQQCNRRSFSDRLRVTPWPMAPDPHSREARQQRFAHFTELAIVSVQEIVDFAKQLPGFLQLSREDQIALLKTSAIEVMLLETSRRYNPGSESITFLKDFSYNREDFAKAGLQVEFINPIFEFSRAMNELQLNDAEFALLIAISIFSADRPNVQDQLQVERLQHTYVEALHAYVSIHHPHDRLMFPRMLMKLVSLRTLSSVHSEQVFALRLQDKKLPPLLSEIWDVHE
Procedure, shortened: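 Biotinylated hLXRα from E. coli extract (50 mM Tris) captured on streptavidin flash plates overnight at 4 °C. Compound dilution series mixed with 5 nM [3H]T0901317 (concentration before mixing), incubated overnight at 4 °C; wells aspirated, washed and remaining radioactivity counted.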

[3] = biological target: T2, human LXRβ (Homo sapiens, UniProt P55055); assay: Ligand-binding test procedure for human LXRβ (3H T0901317 tracer, flash plates); conditions: biotinylated hLXRβ from E. coli extract; tracer 3H T0901317
T2 construct: biotin (biotinylated); made in house; host or cells: E. coli (crude extract)
T2 sequence (P55055 1-460): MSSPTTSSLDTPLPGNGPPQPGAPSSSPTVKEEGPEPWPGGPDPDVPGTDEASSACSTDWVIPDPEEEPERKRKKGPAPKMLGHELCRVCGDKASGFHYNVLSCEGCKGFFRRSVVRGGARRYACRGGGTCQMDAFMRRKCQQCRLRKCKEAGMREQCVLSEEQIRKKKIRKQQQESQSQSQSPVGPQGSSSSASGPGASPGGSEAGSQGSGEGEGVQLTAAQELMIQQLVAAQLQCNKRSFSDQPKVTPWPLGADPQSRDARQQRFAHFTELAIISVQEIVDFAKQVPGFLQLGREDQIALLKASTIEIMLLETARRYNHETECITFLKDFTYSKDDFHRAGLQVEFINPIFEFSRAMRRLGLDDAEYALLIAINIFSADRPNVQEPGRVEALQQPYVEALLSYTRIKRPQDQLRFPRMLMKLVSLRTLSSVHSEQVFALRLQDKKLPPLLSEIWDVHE
Procedure, shortened: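 Biotinylated hLXRβ from E. coli extract was captured on streptavidin flash plates (Bmax ~4000 cpm) at 4 °C overnight. Test ligand dilutions were mixed with 5 nM [3H]T0901317 tracer solution and incubated on the plates overnight at 4 °C; bound radioactivity was counted after washing.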

[4] = Gene regulation by LXR (Human), differentiated THP-1 cells, 18 hrs, ABCA1 mRNA
[5] = Gene regulation by LXR (Human), differentiated THP-1 cells, 18 hrs

Row | Structure (SMILES) | EC50 [1, 4] [nM] | Emax [1, 5] [%] | IC50 [2] [nM] | IC50 [3] [nM] | EC50 ([1]; Homo sapiens, THP-1, 18 h) [nM]
1 | CCc1nc2c(C(F)(F)F)cccn2c1-c1cccc(Oc2cccc(S(=O)(=O)CC)c2)c1 [Example 18, 2-ethyl-3-(3-(3-(ethylsulfonyl)phenoxy)phenyl)-8-(trifluoromethyl)imidazo[1,2-a]pyridine] | 110 | 118 | 321 | 14 | –
2 | CCCS(=O)(=O)c1cccc(Oc2cccc(-c3c(CC)nc4c(C(F)(F)F)cccn34)c2)c1 [Example 19, 2-ethyl-3-(3-(3-(propylsulfonyl)phenoxy)phenyl)-8-(trifluoromethyl)imidazo[1,2-a]pyridine] | 408 | 72 | 975 | 94 | –
3 | CCc1nc2c(C(F)(F)F)cccn2c1-c1cccc(Oc2cccc(S(=O)(=O)C(C)C)c2)c1 [Example 20, 2-ethyl-3-(3-(3-(isopropylsulfonyl)phenoxy)phenyl)-8-(trifluoromethyl)imidazo[1,2-a]pyridine] | 70 | 101 | 281 | 14 | –
4 | CCc1nc2c(C(F)(F)F)cccn2c1-c1cccc(Oc2cccc(S(=O)(=O)CCCO)c2)c1 [Example 21] | 771 | 111 | 520 | 44 | –
5 | CCc1nc2c(C(F)(F)F)cccn2c1-c1cccc(Oc2cc(F)cc(S(C)(=O)=O)c2)c1 [Example 24, 2-ethyl-3-(3-(3-fluoro-5-(methylsulfonyl)phenoxy)phenyl)-8-(trifluoromethyl)imidazo[1,2-a]pyridine] | 147 | 76 | 636 | 51 | –
6 | CCc1nc2c(C#N)cccn2c1-c1cccc(Oc2cccc(S(=O)(=O)N(C)Cc3ccc(OC)cc3)c2)c1 [Example 46, 3-[3-(8-cyano-2-ethylimidazo[1,2-a]pyridin-3-yl)phenoxy]-N-(4-methoxybenzyl)-N-methylbenzenesulfonamide] | 359 | 92 | 64.9 | 15.4 | –
7 | CCc1nc2c(Cl)cccn2c1-c1cccc(Oc2cccc(S(=O)(=O)NC)c2)c1 [Example 48, 3-[3-(8-chloro-2-ethylimidazo[1,2-a]pyridin-3-yl)phenoxy]-N-methylbenzenesulfonamide] | 925 | 94 | 411 | 23 | –
8 | CCc1nc2c(C#N)cccn2c1-c1cccc(Oc2cccc(S(=O)(=O)NC)c2)c1 [Example 51, 3-[3-(8-cyano-2-ethylimidazo[1,2-a]pyridin-3-yl)phenoxy]-N-methylbenzenesulfonamide] | 1470 | 93 | 1920 | 79.6 | –
9 | CC(C)c1nc2c(C(F)(F)F)cccn2c1-c1cccc(Oc2cccc(S(=O)(=O)CCCO)c2)c1 [Example 61, 3-[(3-{3-[2-isopropyl-8-(trifluoromethyl)imidazo[1,2-a]pyridin-3-yl]phenoxy}phenyl)sulfonyl]propan-1-ol] | 1640 | 60 | 456 | 19.8 | –
10 | CCc1nc2c(Cl)cccn2c1-c1cccc(Oc2cccc(S(C)(=O)=O)c2)c1 [Example 63, 8-chloro-2-ethyl-3-{3-[3-(methylsulfonyl)phenoxy]phenyl}imidazo[1,2-a]pyridine] | 304 | 96 | 642 | 17.3 | –
11 | CCc1nc2c(Cl)cccn2c1-c1cccc(Oc2cccc(S(=O)(=O)CC)c2)c1 [Example 64, 8-chloro-2-ethyl-3-{3-[3-(ethylsulfonyl)phenoxy]phenyl}imidazo[1,2-a]pyridine] | 640 | 79 | 399 | 15.1 | –
12 | CCc1nc2c(Cl)cccn2c1-c1cccc(Oc2cccc(S(=O)(=O)C(C)C)c2)c1 [Example 65, 8-chloro-2-ethyl-3-{3-[3-(isopropylsulfonyl)phenoxy]phenyl}imidazo[1,2-a]pyridine] | 1290 | 113 | 315 | 16.9 | –
13 | CC(C)c1nc2c(C#N)cccn2c1-c1cccc(Oc2cccc(S(C)(=O)=O)c2)c1 [Example 72, 2-isopropyl-3-{3-[3-(methylsulfonyl)phenoxy]phenyl}imidazo[1,2-a]pyridine-8-carbonitrile] | – | 79 | – | – | 510
14 | CC(C)(C)c1nc2c(C(F)(F)F)cccn2c1-c1cccc(Oc2cccc(S(C)(=O)=O)c2)c1 [Example 75, 2-tert-butyl-3-{3-[3-(methylsulfonyl)phenoxy]phenyl}-8-(trifluoromethyl)imidazo[1,2-a]pyridine] | – | 91 | – | – | 395
15 | CC(C)c1nc2c(Cl)cccn2c1-c1cccc(Oc2cccc(S(N)(=O)=O)c2)c1 [Example 98, 3-[3-(8-chloro-2-isopropylimidazo[1,2-a]pyridin-3-yl)phenoxy]benzenesulfonamide] | – | 66 | – | – | 1370
16 | CCc1nc2c(C(F)(F)F)cccn2c1-c1cccc(Cc2cccc(S(C)(=O)=O)c2)c1 [Example 100, 2-ethyl-3-{3-[3-(methylsulfonyl)benzyl]phenyl}-8-(trifluoromethyl)imidazo[1,2-a]pyridine] | – | 82 | – | – | 460
17 | CS(=O)(=O)c1cccc(Oc2ccc(-c3c(-c4ccsc4)nc4c(C(F)(F)F)cccn34)cc2)c1 [Example 127, 3-{4-[3-(methylsulfonyl)phenoxy]phenyl}-2-thiophen-3-yl-8-(trifluoromethyl)imidazo[1,2-a]pyridine] | 480 | 25 | – | 113 | –
18 | CS(=O)(=O)c1cccc(Oc2cccc(-c3c(CN4CCCCC4)nc4c(C(F)(F)F)cccn34)c2)c1 [Example 131, 3-{3-[3-(methylsulfonyl)phenoxy]phenyl}-2-(piperidin-1-ylmethyl)-8-(trifluoromethyl)imidazo[1,2-a]pyridine] | – | 100 | – | – | 43
19 | CS(=O)(=O)c1cccc(Oc2cccc(-c3c(CN4CCSC4)nc4c(C(F)(F)F)cccn34)c2)c1 [Example 133, 3-{3-[3-(methylsulfonyl)phenoxy]phenyl}-2-(1,3-thiazolidin-3-ylmethyl)-8-(trifluoromethyl)imidazo[1,2-a]pyridine] | – | 98 | – | – | 10
